Assay results taken from patent US12673954B2 (BRISTOL-MYERS SQUIBB COMPANY, priority 2021, dated 2026).
Read-outs that look alike come from different tables or passages of the source.

Tests used:
[1] = test system: NF-κB pathway, THP1-Dual™ cells; experiment: STING reporter assay in THP1-Dual cells, NF-κB pathway (SEAP, QUANTI-Blue); type: cell-based, human; conditions: THP1-Dual cells, 10% human plasma, 20 hours, SEAP, 100% activation = 100 μM cGAMP, read-out: NFkB (EC50 μM)
How it was run: (§1)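 Activation normalised between DMSO-only baseline and 100 μM cGAMP maximum, after 20 h compound exposure (starting at 100 μM final) at 37° C, 5% CO2. Supernatant SEAP (QUANTI-Blue, OD620) reports NF-κB; secreted luciferase (QUANTI-Luc, RLU at 5 min) reports IRF.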

[2] = test system: IRF pathway, THP1-Dual™ cells; experiment: STING reporter assay in THP1-Dual cells, IRF pathway (Lucia luciferase, QUANTI-Luc); type: cell-based, human; conditions: THP1-Dual cells, 10% human plasma, 20 hours, Lucia luciferase, 100% activation = 100 μM cGAMP, read-out: IRF (EC50 μM)
How it was run: as §1

Row | Compound | EC50 ([1]; Homo sapiens, THP1-Dual, 20 h) [µM] | EC50 ([2]; Homo sapiens, THP1-Dual, 20 h) [µM] | EC50 [1] [µM] | EC50 [2] [µM]
1 | O=C(NCc1cc2cc(Cl)cc(C(=O)OCC(F)(F)F)c2o1)c1cncc2[nH]cnc12 [EXAMPLE 264, 2,2,2-Trifluoroethyl 2-((3H-imidazo[4,5-c]pyridine-7-carboxamido)methyl)-5-chlorobenzofuran-7-carboxylate] | 1.7 | 1.7 |  | 
2 | Cc1ccn2ncc(C(=O)NCc3cc4cccc(C(=O)OCC(F)(F)F)c4o3)c2n1 [EXAMPLE 219, 2,2,2-Trifluoroethyl 2-((5-methylpyrazolo[1,5-a]pyrimidine-3-carboxamido)methyl)benzofuran-7-carboxylate] | 10 | 7.7 |  | 
3 | C[C@H](NC(=O)c1cnn2cccnc12)c1cc2cc(Cl)cc(C(=O)OC3CC(F)(F)C3)c2o1 [EXAMPLE 267, 3,3-Difluorocyclobutyl (S)-5-chloro-2-(1-(pyrazolo[1,5-a]pyrimidine-3-carboxamido)ethyl)benzofuran-7-carboxylate] | 6.6 | 5.8 |  | 
4 | COC(=O)c1cc(Cl)cc2cc(CNC(=O)c3cnn4cccnc34)oc12 [Example 48, Methyl 5-chloro-2-((pyrazolo[1,5-a]pyrimidine-3-carboxamido)methyl)benzofuran-7-carboxylate] | 0.68 | 0.64 |  | 
5 | COC(=O)c1cccc2cc(CN3Cc4cccnc4C3=O)oc12 [EXAMPLE 1, Methyl 2-((7-oxo-5,7-dihydro-6H-pyrrolo[3,4-b]pyridin-6-yl)methyl)benzofuran-7-carboxylate] | 98 | 96 |  | 
6 | C[C@H](NC(=O)c1cnn2cccnc12)c1oc2c(C(=O)OC3COC3)cc(Cl)cc2c1Cl [EXAMPLE 298, Oxetan-3-yl (S)-3,5-dichloro-2-(1-(pyrazolo[1,5-a]pyrimidine-3-carboxamido)ethyl)benzofuran-7-carboxylate] | 3.3 | 3.6 |  | 
7 | C[C@H](NC(=O)c1cnn2cccnc12)c1oc2c(C(=O)OCC(F)(F)F)cc(F)cc2c1Cl [EXAMPLE 292, 2,2,2-Trifluoroethyl (S)-3-chloro-5-fluoro-2-(1-(pyrazolo[1,5-a]pyrimidine-3-carboxamido)ethyl)benzofuran-7-carboxylate] | 1.1 | 1.7 |  | 
8 | COC(=O)c1cc(Cl)cc2cc(CNC(=O)c3[nH]nc4cccnc34)oc12 [Example 49, Methyl 2-((2H-pyrazolo[4,3-b]pyridine-3-carboxamido)methyl)-5-chlorobenzofuran-7-carboxylate] | 93 | 71 |  | 
9 | COC(=O)c1cccc2cc(CNC(=O)c3cnn4ccc(C)nc34)oc12 [EXAMPLE 10, Methyl 2-((5-methylpyrazolo[1,5-a]pyrimidine-3-carboxamido)methyl) benzofuran-7-carboxylate] |  |  | 7.6 | 7.5
10 | COC(=O)c1cc(Cl)cc2cc(CNC(=O)c3cncn(C)c3=O)oc12 [Example 65, Methyl 5-chloro-2-((1-methyl-6-oxo-1,6-dihydropyrimidine-5-carboxamido)methyl)benzofuran-7-carboxylate] | 3.1 | 3 |  | 
11 | COC(OC(=O)c1cc(Br)cc2cc(CNC(=O)c3cnn4cccnc34)oc12)C(F)(F)F (single isomer, unassigned) [EXAMPLE 340, 2,2,2-Trifluoro-1-methoxyethyl 5-bromo-2-((pyrazolo[1,5-a]pyrimidine-3-carboxamido)methyl)benzofuran-7-carboxylate] |  |  | 0.92 | 0.91
12 | C[C@@H](OC(=O)c1cc(Cl)cc2cc(CNC(=O)c3cncc4[nH]cnc34)oc12)C(F)(F)F [EXAMPLE 265, (R)-1,1,1-Trifluoropropan-2-yl 2-((3H-imidazo[4,5-c]pyridine-7-carboxamido)methyl)-5-chlorobenzofuran-7-carboxylate] | 0.82 | 0.84 |  | 
13 | COC(=O)c1cc(F)cc2cc(CN3Cc4ccncc4C3=O)oc12 [EXAMPLE 43, Methyl 5-fluoro-2-((3-oxo-1,3-dihydro-2H-pyrrolo[3,4-c]pyridin-2-yl)methyl)benzofuran-7-carboxylate] | 24 | 19 |  | 
